In patent publication US20060276407A1, “Methods of treating hepatitis C virus” (Schering Corporation, priority 2005, published 2006):
Read-outs that look alike come from different tables or passages of the source.

Assay: Multiple oral dosing for 14 days, pharmacokinetics in HCV infected subjects (Example 3)
Type: in vivo, human
Settings: for DN Cmax / DN-AUC(0-12 hr): dose-normalized (to 100 mg); for Cmin: at 0 hour (trough) predose; for Cmax / AUC(0-t) / Tmax / Vd/F / half-life: human, plasma, oral; for half-life: read-out: t½ (converted)
Protocol: Multiple escalating doses of compound of Formula Ia were administered for 14 days to HCV positive subjects who were genotype 1 Interferon-a (with or without ribavirin) non responders. In a randomized, placebo controlled, third party blind study, multiple doses of 100 mg BID, 200 mg BID, 400 mg BID, 400 mg TID, and 600 mg TID of compound of Formula Ia or placebo in a 3:1 ratio with or without food were evaluated.
Upon acceptance into the study, within each cohort, subjects were randomized in a 3:1 ratio (active to placebo) and received one of the following dosing groups: • Group 1: Compound of Formula Ia 100 mg (2×50 mg) BID or matching placebo×14 days without food. • Group 2: Compound of Formula Ia 200 mg (2×100 mg) BID or matching placebo×14 days without food. • Group 3: Compound of Formula Ia 400 mg (4×100 mg) BID or matching placebo×14 days without food. • Group4: Compound of Formula Ia 400 mg (4×100 mg) TID or matching placebo×14 days without food. • Group 5: Compound of Formula Ia 400 mg (4×100 mg) BID or matching placebo×14 days with food. • Group 6: Compound of Formula Ia 600 mg (6×100 mg) BID or matching placebo×14 days without food. • Group 7: Compound of Formula Ia 600 mg (6×100 mg) BID or matching placebo×14 days with food. • Group 8: compound of Formula Ia 600 mg (6×100 mg) TID or matching placebo×14 days without food. • Group 9: compound of Formula Ia intermediate dose or matching placebo×14 days with or without food.
Each subject was randomized to one treatment group. On Day 14, only the AM dose was administered.
For Cohorts Without Food: Treatments were administered on the morning (approximately 8 AM) of Days 1 and 14 following a 10 hour fast. Fasting continued until 4 hours postdose. Water was allowed during the fasting period. On the nonpharmacokinetic collection days (Days 2 through 13) breakfast and dinner were consumed either 90 minutes before or 90 minutes after each dose. All treatments were administered with approximately 240 mL of noncarbonated water. All doses on Days 1-14 were administered at approximately the same time each day, for cohorts with BID dosing study treatment were administered approximately 12 hours apart at 8 AM and 8 PM, and for cohorts with TID dosing study treatment were administered approximately 8 hours apart at 8 AM, 4 PM, and 12 Midnight.
For Cohorts With TID Dosing: All volunteers were dosed three times daily at approximately the same time each day; the doses were administered approximately 8 hours apart at 8 AM, 4 PM, and 12 Midnight.
For Cohorts With BID Dosing: All volunteers were dosed twice a day at approximately the same time each day. The doses were administered approximately 12 hours apart at 8 AM and 8 PM.
On Day 14, all subjects received only their assigned AM dose. During the dosing the capsule(s) were swallowed whole, not chewed or crushed. After dosing, the oral cavity was inspected to assure the volunteer had completely swallowed the capsule(s). […] Water was permitted throughout the fasting and nonfasting periods.
The plasma concentration data of compound of Formula Ia was used to estimate the following pharmacokinetic parameters: • Cmax—Maximum observed plasma concentration; • Tmax—Time of observed maximum plasma concentration; • AUC(0-t)—Area under the plasma concentration-time curve over the dosing interval • AUC (tf)—Area under the plasma concentration-time curve to the final quantifiable sample • CL/F—Apparent total body clearance. • t½—Terminal phase half life • Vd/F—Apparent volume of distribution • R—Accumulation ratio
All plasma samples were assayed for compound of Formula Ia using a validated liquid chromatographic tandem mass spectrometric (LC-MS/MS) method.

[1] = 100 mg, Day 14, 100 mg BID, mean
[2] = 200 mg, Day 14, 200 mg BID, mean
[3] = 400 mg, Day 14, 400 mg BID, mean
[4] = 400 mg, Day 14, 400 mg TID, mean

CC(C)(C)NC(=O)N[C@H](C(=O)N1C[C@H]2[C@@H]([C@H]1C(=O)NC(CC1CCC1)C(=O)C(N)=O)C2(C)C)C(C)(C)C (mixture of isomers) [Formula Ia, (1 R, 5S)-N-[3-Amino-1-(Cyclobutylmethyl)-2,3-Dioxopropyl]-3-[2(S)-[[[(1,1-Dimethylethyl)Amino]Carbonyl]Amino]-3,3-Dimethyl-1-Oxobutyl]-6,6-Dimethyl-3-Azabicyclo[3.1.0]Hexan-2(S)-Carboxamide]
mean accumulation ratio (BID dosing): 1
DN Cmax (Day 1, 100 mg BID, mean): 131 ng/mL
DN-AUC(0-12 hr) (Day 1, 100 mg BID, mean): 417 ng·h/mL
DN Cmax (Day 1, 200 mg BID, mean): 162 ng/mL
DN-AUC(0-12 hr) (Day 1, 200 mg BID, mean): 492 ng·h/mL
DN Cmax (Day 1, 400 mg BID, mean): 116 ng/mL
DN-AUC(0-12 hr) (Day 1, 400 mg BID, mean): 421 ng·h/mL
Cmin (Day 14, 100 mg BID, mean): 12.7 ng/mL
DN Cmax (Day 14, 100 mg BID, mean): 193 ng/mL
DN-AUC(0-12 hr) (Day 14, 100 mg BID, mean): 700 ng·h/mL
CL/F (Day 14, 100 mg BID, mean): 159 L/h
R (accumulation ratio) (Day 14, 100 mg BID, mean): 2.40
t½ (Day 14, 100 mg BID, mean): 8.58 h
Cmin (Day 14, 200 mg BID, mean): 46.3 ng/mL
DN Cmax (Day 14, 200 mg BID, mean): 212 ng/mL
DN-AUC(0-12 hr) (Day 14, 200 mg BID, mean): 693 ng·h/mL
CL/F (Day 14, 200 mg BID, mean): 155 L/h
R (accumulation ratio) (Day 14, 200 mg BID, mean): 1.45
Cmin (Day 14, 400 mg BID, mean): 48.8 ng/mL
DN Cmax (Day 14, 400 mg BID, mean): 115 ng/mL
DN-AUC(0-12 hr) (Day 14, 400 mg BID, mean): 411 ng·h/mL
CL/F (Day 14, 400 mg BID, mean): 269 L/h
R (accumulation ratio) (Day 14, 400 mg BID, mean): 1.00
Cmin (Day 14, 400 mg TID, mean): 183 ng/mL
DN Cmax (Day 14, 400 mg TID, mean): 138 ng/mL
CL/F (Day 14, 400 mg TID, mean): 206 L/h
R (accumulation ratio) (Day 14, 400 mg TID, mean): 1.26
Cmax (100 mg, Day 1, 100 mg BID, mean, n = 12): 131 ng/mL
AUC(0-t) (100 mg, Day 1, 100 mg BID, mean, read-out: AUC(0-12 hr)): 417 ng·h/mL
Tmax (100 mg, Day 1, 100 mg BID, median, read-out: Tmax): 1.5 h
Cmax [1]: 193 ng/mL
Vd/F [1]: 1860 L
AUC(0-t) (100 mg, Day 14, 100 mg BID, mean, read-out: AUC(0-12 hr)): 700 ng·h/mL
half-life [1]: 8.5 h
Tmax (100 mg, Day 14, 100 mg BID, median, read-out: Tmax): 1.25 h
Cmax (200 mg, Day 1, 200 mg BID, mean, n = 12): 324 ng/mL
AUC(0-t) (200 mg, Day 1, 200 mg BID, mean, read-out: AUC(0-12 hr)): 983 ng·h/mL
Tmax (200 mg, Day 1, 200 mg BID, median, read-out: Tmax): 1 h
Cmax [2]: 424 ng/mL
Vd/F [2]: 2910 L
AUC(0-t) (200 mg, Day 14, 200 mg BID, mean, read-out: AUC(0-12 hr)): 1390 ng·h/mL
half-life [2]: 13.4 h
Tmax (200 mg, Day 14, 200 mg BID, median, read-out: Tmax): 1.25 h
Cmax (400 mg, Day 1, 400 mg BID, mean, n = 11): 463 ng/mL
AUC(0-t) (400 mg, Day 1, 400 mg BID, mean, read-out: AUC(0-12 hr)): 1680 ng·h/mL
Tmax (400 mg, Day 1, 400 mg BID, median, read-out: Tmax): 1.5 h
Cmax (400 mg, Day 1, 400 mg TID, mean, n = 10): 504 ng/mL
AUC(0-t) (400 mg, Day 1, 400 mg TID, mean, read-out: AUC(0-8 hr)): 1650 ng·h/mL
Tmax (400 mg, Day 1, 400 mg TID, median, read-out: Tmax): 1.5 h
Cmax [3]: 459 ng/mL
Vd/F [3]: 5030 L
AUC(0-t) (400 mg, Day 14, 400 mg BID, mean, read-out: AUC(0-12 hr)): 1640 ng·h/mL
half-life [3]: 12.4 h
Tmax (400 mg, Day 14, 400 mg BID, median, read-out: Tmax): 1 h
Cmax [4]: ~550 ng/mL
Vd/F [4]: ~5000 L
AUC(0-t) (400 mg, Day 14, 400 mg TID, mean, read-out: AUC(0-8 hr)): 1990 ng·h/mL
half-life [4]: 15.9 h
Tmax (400 mg, Day 14, 400 mg TID, median, read-out: Tmax): 1.5 h
Tmax (across dosages (100 mg BID to 400 mg TID), read-out: Mean Tmax): 1 to 1.5 h
Time at which steady-state trough levels were reached (multiple dosing): ~11 days
